Results on two molecules are retold here after patent US20230126533A1, “Method of treating an inflammatory disorder” (The University of Miami, priority 2020, published 2023).

Starred links: 1 amine or outer side, 2 acyl side, 3 side chain; linkers in the order of their positions; H or OH if unused. Non-standard residues stand in square brackets, D forms with d. *: point of attachment. Tyr(Me) = O-methyl-tyrosine, COc1ccc(C[C@H](N[*:1])C(=O)[*:2])cc1; Phenylacetyl(2,3,4,5,6-F5) = O=C(Cc1c(F)c(F)c(F)c(F)c1F)*; Phe(F5) = N[C@@H](Cc1c(F)c(F)c(F)c(F)c1F)C(=O)O; hArg = N=C(N)NCCCC[C@H](N)C(=O)O; 12Ado = NCCCCCCCCCCCC(=O)O; Nle = CCCC[C@H](N)C(=O)O; Abu = CC[C@H](N)C(=O)O

The test system of one experiment is CD209f gene. The experiment can be described thus: RNASeq gene expression in lungs of MAB microparticle challenged mice. In kind it is in vivo, mouse. The conditions noted are these: challenged mice with AVR treatment vs challenged mice. On the procedure:
(§1) A mouse model of pulmonary sarcoidosis was previously established in C57B1/6 mice. Microparticles (Mycobacterium abscessus) developed in-house were administered intratracheally. The tongue was pulled out with a small spatula and microparticle was inserted into the trachea using a 20 G angio-catheter tube and advanced to main bronchus until reach to resistant. After tube placement, microparticles were administered (first dose of 50 μL=5×10^8, followed by up to 3 doses of 20 μL=2×10^8 of CFU of M. abscessus). The control group received only 20 μL PBS intratracheally.
(§2) One sarcoidosis group received AVR (“AVR group”), administered via subcutaneous injection, 5 microgram per mouse daily. Another sarcoidosis group received steroid treatment ([…], the current first line treatment for sarcoidosis) (“solu-medrol group”), and the final group received only saline (“granuloma group”). After 3 weeks mice were sacrificed and graded the inflammation in the lung samples.
Whole gene expression was analyzed using RNASeq. Harvested lung from control, challenged, and treatment groups generated as described in Example 3 were used. RNA was isolated and RNASeq was performed at Genomic center at University of Miami. […] A heatmap was generated for the differentiating genes between challenged mice with MAB microparticles versus challenged mice with AVR treatment.

In experiment [1] the test system is PBMC of subjects with confirmed pulmonary sarcoidosis. The experiment can be described thus: Apoptosis-related proteins in ex vivo sarcoidosis granuloma model (multiplex Elisa). Format: cell-based, human. The conditions noted are these: PBMC challenged with MAB microparticles 10:1, 48 h; for active caspase 3 concentration: 1 microM AVR. The source says:
GHRHR antagonists induce apoptosis in cancer cells. The effects of GHRHR antagonist in immune cells still remains unclear. The ability of AVR to induce apoptosis in an ex vivo sarcoidosis model using PBMC of five subjects with confirmed pulmonary sarcoidosis was characterized.
PBMC samples were grouped as “control” (not challenged), “particles” (granuloma), “particles+AVR” (granuloma treated with 1 microM AVR), and “particles+Solu” (granuloma treated with methyl prednisolone as positive control). The “particle” groups were challenged with equal to 10:1 treatment with MAB microparticles. Media from all groups were removed 48 h after of treatments. Survivn, MCL-1/Bak Dimer, BClxL/Bak dimer, and active caspase 3 concentrations were measured using multiplex Elisa instrument and compared using t-test.

A further experiment has as its system iNOS. The experiment is described as follows: iNOS expression in lungs of MAB microparticle challenged mice. Format: in vivo. The conditions noted are these: mouse models of Example 3; vs MAB microparticle alone. As to the method: as §1, §2
Inducible Nitric oxide synthase (iNOS) plays important role in immune response to microbes. NO can control the production of Th1 immune responses by modulating IL-12 expression. NO plays an important inhibitory role in Th17 differentiation. […] To test whether AVR reduces iNOS expression in an inflammation model, lungs from mouse models described in Example 3 were evaluated for iNOS.

A further experiment has as its system IL2, OAS1 and ISG15. The experiment is described as follows: Cytokine expression (Western blot) in lungs of MAB microparticle challenged mice. Format: in vivo. Conditions: mouse models of Example 3; vs MAB microparticle challenge. As to the method:
as §1, §2
The effects of AVR on IL2 (T helper 1 cytokine) and Type I interferon cytokines (OAS1 and ISG15) were measured and compared in the lungs of mice models prepared as set forth in Example 3.
A general note: Immunoblotting shows a protein as a band on a membrane.

Experiment [2] has as its system C57B1/6 mice challenged with Mycobacterium abscessus (MAB) microparticles. The experiment is described as follows: Lung inflammation score in mouse model of pulmonary sarcoidosis. Format: in vivo. The conditions noted are these: AVR 5 microgram per mouse daily subcutaneous, after 3 weeks, vs saline granuloma group. As to the method: as §1
The lung tissue was fixed in formalin and cut for histology. Developed noncaseating granuloma in the mouse lung was visualized with H&E staining and immunohistochemistry staining for CD68 macrophage marker, CD4 marker, and PD-L1.
as §2
Two mg of AVR-352 was added to 0.5 ml DMSO. After dissolving, 1,2-propanediol 10% was added to reach a volume of 40 ml. The fluid was sterilized by passing through a 0.22-micron filter. […]

For “5FPhAC-Ada-Tyr-DArg-Asp-Ala-Ile-5FPhe-Thr-Ala-Har-Tyr(Me)-Arg-Lys-Val-Leu-Abu-Gln-Leu-Ser-Ala-Arg-Lys-Leu-Leu-Gln-Asp-Ile-Nle-DArg-Har-Ada-NH2 ({Phenylacetyl(2,3,4,5,6-F5)-12Ado}-Y[dR]DAI[Phe(F5)]TA[hArg][Tyr(Me)]RKVL[Abu]QLSARKLLQDI[Nle][dR][hArg]-{12Ado-NH2}; SMILES CCCC[C@H](NC(=O)[C@@H](NC(=O)[C@H](CC(=O)O)NC(=O)[C@H](CCC(N)=O)NC(=O)[C@H](CC(C)C)NC(=O)[C@H](CC(C)C)NC(=O)[C@H](CCCCN)NC(=O)[C@H](CCCNC(=N)N)NC(=O)[C@H](C)NC(=O)[C@H](CO)NC(=O)[C@H](CC(C)C)NC(=O)[C@H](CCC(N)=O)NC(=O)[C@H](CC)NC(=O)[C@H](CC(C)C)NC(=O)[C@@H](NC(=O)[C@H](CCCCN)NC(=O)[C@H](CCCNC(=N)N)NC(=O)[C@H](Cc1ccc(OC)cc1)NC(=O)[C@H](CCCCNC(=N)N)NC(=O)[C@H](C)NC(=O)[C@@H](NC(=O)[C@H](Cc1c(F)c(F)c(F)c(F)c1F)NC(=O)[C@@H](NC(=O)[C@H](C)NC(=O)[C@H](CC(=O)O)NC(=O)[C@@H](CCCNC(=N)N)NC(=O)[C@H](Cc1ccc(O)cc1)NC(=O)CCCCCCCCCCCNC(=O)Cc1c(F)c(F)c(F)c(F)c1F)[C@@H](C)CC)[C@@H](C)O)C(C)C)[C@@H](C)CC)C(=O)N[C@H](CCCNC(=N)N)C(=O)N[C@@H](CCCCNC(=N)N)C(=O)NCCCCCCCCCCCC(N)=O) [AVR]”, in the experiment with CD209f gene, the “CD209f gene expression in lung” value is on record as “significantly downregulated”. Besides, in experiment [1], the “active caspase 3 concentration” value is reported as “significantly increased”. In addition, in the experiment with iNOS, the “iNOS expression in the challenged lung” value is “significantly reduced MAB-induced increased iNOS expression”. Moreover, in the experiment with IL2, OAS1 and ISG15, the “IL2 expression in lung” value is recorded as “reduced significantly”, the “ISG15 expression in lung” value is given as “reduced significantly” and the “OAS1 expression in lung” value is reported as “reduced significantly”. The “lung inflammation score (percentage of lung inflammation)” value in experiment [2] is “significantly lower inflammation scores”.

Take `C[C@H]1C[C@@H]2[C@H]([C@@H](O)C[C@@]3(C)[C@H]2CC[C@]3(O)C(=O)COC(=O)CCC(=O)[O-])[C@@]2(C)C=CC(=O)C=C12.[Na+]` [Solu-Medrol, reference compound]: in experiment [1], the “active caspase 3 concentration” value is “significantly increased” and the MCL-1/Bak dimer concentration result is recorded as “significantly reduced”. In the experiment with iNOS, the “iNOS expression in the challenged lung” value is reported as “reduced MAB-induced increased iNOS expression”. Besides, the “lung inflammation score (percentage of lung inflammation)” value in experiment [2] was “less effect than AVR”.
